Test results published in patent US20190367516A1 (Bayer Pharma Aktiengesellschaft, priority 2015, published 2019).

How the values were obtained:
[1] = target: T1, human M2 receptor (Homo sapiens, UniProt P08172); type: cell-based; details: shift of acetylcholine dose-response curve (Allosteric EC50 shift); α >1 = positive cooperativity
T1 sequence (P08172 1-466): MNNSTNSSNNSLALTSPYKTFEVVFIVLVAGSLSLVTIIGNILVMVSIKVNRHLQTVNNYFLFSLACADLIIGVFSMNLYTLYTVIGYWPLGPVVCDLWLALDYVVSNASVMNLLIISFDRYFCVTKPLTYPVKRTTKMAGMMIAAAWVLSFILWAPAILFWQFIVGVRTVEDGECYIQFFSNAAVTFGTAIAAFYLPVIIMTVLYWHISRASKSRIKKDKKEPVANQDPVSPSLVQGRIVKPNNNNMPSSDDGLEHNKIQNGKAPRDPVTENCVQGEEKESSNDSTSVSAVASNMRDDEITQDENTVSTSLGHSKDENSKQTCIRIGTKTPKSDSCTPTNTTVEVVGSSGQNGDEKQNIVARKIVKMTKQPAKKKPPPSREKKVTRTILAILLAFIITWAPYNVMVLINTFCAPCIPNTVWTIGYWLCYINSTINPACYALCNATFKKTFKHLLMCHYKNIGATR

[2] = target: T1, human M2 receptor; details: M2-GIRK1/4 reporter cells; for EC50: Receptor activity EC50, allosteric potency at EC20 acetylcholine, in some cases mean of two or more determinations; for Emax: read-out: Efficiency, boosting of the acetylcholine effect at EC20 acetylcholine concentration

| Structure (SMILES) | Cooperativity (alpha factor) [1] | EC50 [2] | Emax [2] |
| --- | --- | --- | --- |
| C[C@@H]1CN(c2ccc3c(=O)c(C(=O)NC(C)(C)CC(F)(F)F)cn(-c4c(F)cc(F)cc4F)c3n2)C(=O)N1 [Example 457, 7-[(4R)-4-Methyl-2-oxoimidazolidin-1-yl]-4-oxo-N-(4,4,4-trifluoro-2-methylbutan-2-yl)-1-(2,4,6-trifluorophenyl)-1,4-dihydro-1,8-naphthyridine-3-carboxamide] | 36 | 4 nM | 82% |
| CC(C)C(NC(=O)c1cn(-c2c(F)cc(F)cc2F)c2nc(N3C[C@@H](O)[C@H](O)C3)ccc2c1=O)C(C)C [Example 474, 7-[(3R,4R)-3,4-Dihydroxypyrrolidin-1-yl]-N-(2,4-dimethylpentan-3-yl)-4-oxo-1-(2,4,6-trifluorophenyl)-1,4-dihydro-1,8-naphthyridine-3-carboxamide] | 44 | 5 nM | 100% |
| CC(C)C(NC(=O)c1cn(-c2c(F)cc(F)cc2F)c2nc(N3C[C@@H](O)CC3=O)ccc2c1=O)C(C)C [Example 475, N-(2,4-Dimethylpentan-3-yl)-7-[(4S)-4-hydroxy-2-oxopyrrolidin-1-yl]-4-oxo-1-(2,4,6-trifluorophenyl)-1,4-dihydro-1,8-naphthyridine-3-carboxamide] | 68 | 2 nM | 100% |
| CC(C)(NC(=O)c1cn(-c2c(F)cc(F)cc2F)c2nc(N3CC[C@@H](O)C3=O)ccc2c1=O)C(F)(F)F [Example 488, 7-[(3R)-3-Hydroxy-2-oxopyrrolidin-1-yl]-4-oxo-N-(1,1,1-trifluoro-2-methylpropan-2-yl)-1-(2,4,6-trifluorophenyl)-1,4-dihydro-1,8-naphthyridine-3-carboxamide] | 53 | 24 nM | 96% |
| C[C@H](O)CN(C)c1ccc2c(=O)c(C(=O)N[C@@H](C3CC3)C(F)(F)F)cn(-c3c(F)cc(F)cc3F)c2n1 [Example 493] | 14 | 16 nM | 94.5% |
| C[C@@H](O)CN(C)c1ccc2c(=O)c(C(=O)N[C@@H](C3CC3)C(F)(F)F)cn(-c3c(F)cc(F)cc3F)c2n1 [Example 494] | 20 | 28 nM | 78% |
| CC(C)(C)[C@H](NC(=O)c1cn(-c2c(F)cc(F)cc2F)c2nc(N3C[C@@H](O)CC3=O)ccc2c1=O)C(F)(F)F [Example 504, 7-[(4S)-4-Hydroxy-2-oxopyrrolidin-1-yl]-4-oxo-N-[(2S)-1,1,1-trifluoro-3,3-dimethylbutan-2-yl]-1-(2,4,6-trifluorophenyl)-1,4-dihydro-1,8-naphthyridine-3-carboxamide] | 47 | 4 nM | 100% |
| O=C(NC1(C(F)(F)F)CCC1)c1cn(-c2c(F)cc(F)cc2F)c2nc(N3C[C@@H](O)CC3=O)ccc2c1=O [Example 515, 7-[(4S)-4-Hydroxy-2-oxopyrrolidin-1-yl]-4-oxo-N-[1-(trifluoromethyl)cyclobutyl]-1-(2,4,6-trifluorophenyl)-1,4-dihydro-1,8-naphthyridine-3-carboxamide] | 37 | 12 nM | 99.3% |
| CC(C)(NC(=O)c1cn(-c2c(F)cc(F)cc2F)c2nc(N3C[C@@H](O)CC3=O)ccc2c1=O)C(F)F [Example 516, N-(1,1-Difluoro-2-methylpropan-2-yl)-7-[(4S)-4-hydroxy-2-oxopyrrolidin-1-yl]-4-oxo-1-(2,4,6-trifluorophenyl)-1,4-dihydro-1,8-naphthyridine-3-carboxamide] | 35 | 20 nM | 100% |

The remaining lines, values ahead:

| Cooperativity (alpha factor) [1] | EC50 [2] | Emax [2] | Structure (SMILES) |
| --- | --- | --- | --- |
| 17 | 18 nM | 88% | O=C(N[C@@H](C1CC1)C(F)(F)F)c1cn(-c2c(F)cc(F)cc2F)c2nc(N3CCCC[C@@H]3CO)ccc2c1=O [Example 462, N-[(1 S)-1-Cyclopropyl-2,2,2-trifluoroethyl]-7-[(2R)-2-(hydroxymethyl)piperidin-1-yl]-4-oxo-1-(2,4,6-trifluorophenyl)-1,4-dihydro-1,8-naphthyridine-3-carboxamide] |
| 23 | 27 nM | 100% | O=C(N[C@@H](C1CC1)C(F)(F)F)c1cn(-c2c(F)cc(F)cc2F)c2nc(N3CCC(CO)(CO)CC3)ccc2c1=O [Example 489, 7-[4,4-Bis(hydroxymethyl)piperidin-1-yl]-N-[(1S)-1-cyclopropyl-2,2,2-trifluoroethyl]-4-oxo-1-(2,4,6-trifluorophenyl)-1,4-dihydro-1,8-naphlthyridine-3-carboxamide] |
| 24 | 28 nM | 88.5% | CC[C@H](NC(=O)c1cn(-c2c(F)cc(F)cc2F)c2nc(N3CC(CO)(CO)C3)ccc2c1=O)C(F)(F)F [Example 503, 7-[3,3-Bis(hydroxymethyl)azetidin-1-yl]-4-oxo-N-[(2S)-trifluorobutan-2-yl]-1-(2,4,6-trifluorophenyl)-1,4-dihydro-1,8-naphthyridine-3-carboxamide] |
| 27 | 7 nM | 100% | CO[C@H]1CCN(c2ccc3c(=O)c(C(=O)N[C@@H](C4CC4)C(F)(F)F)cn(-c4c(F)cc(F)cc4F)c3n2)C1 [Example 535, N-[(1 S)-1-Cyclopropyl-2,2,2-trifluoroethyl]-7-[(3S)-3-methoxypyrrolidin-1-yl]-4-oxo-1-(2,4,6-trifluorophenyl)-1,4-dihydro-1,8-naphthyridine-3-carboxamide] |
| 21 | 7 nM | 86.5% | CCN1CCCN(c2ccc3c(=O)c(C(=O)N[C@@H](C4CC4)C(F)(F)F)cn(-c4c(F)cc(F)cc4F)c3n2)C1=O [Example 539, N-[(1S)-1-Cyclopropyl-2,2,2-trifluoroethyl]-7-(3-ethyl-2-oxotetrahydropyrimidin-1(2H)-yl)-4-oxo-1-(2,4,6-trifluorophenyl)-1,4-dihydro-1,8-naphthyridine-3-carboxamide] |
| 28 | 8 nM | 100% | CC(C)C[C@H](NC(=O)c1cn(-c2c(F)cc(F)cc2F)c2nc(N3CCNC3=O)ccc2c1=O)C(F)(F)F [Example 543, 4-Oxo-7-(2-oxoimidazolidin-1-yl)-N-[(2S)-1,1,1-trifluoro-4-methylpentan-2-yl)-1-(2,4,6-trifluorophenyl)-1,4-dihydro-1,8-naphthyridine-3-carboxamide] |
| 57 | 12 nM | 100% | CC(C)C[C@H](NC(=O)c1cn(-c2c(F)cc(F)cc2F)c2nc(N3C[C@@H](O)[C@@H](O)C3)ccc2c1=O)C(F)(F)F [Example 573, 7-[(3R,4S)-3,4-Dihydroxypyrrolidin-1-yl]-4-oxo-N-[(2S)-1,1,1-trifluoro-4-methylpentan-2-yl]-1-(2,4,6-trifluorophenyl)-1,4-dihydro-1,8-naphthyridine-3-carboxamide] |
| 36 | 12 nM | 100% | CC(C)C[C@@H](NC(=O)c1cn(-c2c(F)cc(F)cc2F)c2nc(N3C[C@@H](O)[C@@H](O)C3)ccc2c1=O)C(F)(F)F [Example 574, 7-[(3R,4S)-3,4-Dihydroxypyrrolidin-1-yl]-4-oxo-N-[(2R)-1,1,1-trifluoro-4-methylpentan-2-yl]-1-(2,4,6-trifluorophenyl)-1,4-dihydro-1,8-naphthyridine-3-carboxamide] |
